{"source": "patent US20230085307A1", "about": "“PYRIDAZINONE COMPOUND AND HERBICIDE” (NISSAN CHEMICAL CORPORATION, priority 2019, published 2023)", "key": {"barnyard grass [1]": {"test_system": "barnyard grass", "experiment": "Test Example 3: herbicidal effect by foliage application, Wagner pot (Table 18, symbol H)", "format": "in vivo, barnyard grass (Echinochloa crus-galli)", "conditions": "320 g/ha", "how_it_was_run": "(§1)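 Plants were sown in alluvial soil held under 0.1–0.5 cm standing water and grown 14 days in a greenhouse at 25–30 °C. An emulsifiable formulation, water-diluted to the set dose, was then sprayed onto the foliage, and effects were scored three weeks later using previously defined criteria.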"}, "Chinese sprangletop": {"test_system": "Chinese sprangletop", "experiment": "Test Example 3: herbicidal effect by foliage application, Wagner pot (Table 18, symbol D)", "format": "in vivo, chinese sprangletop (Leptochloa chinensis)", "conditions": "320 g/ha", "how_it_was_run": "as §1"}, "rice flat sedge": {"test_system": "rice flat sedge", "experiment": "Test Example 3: herbicidal effect by foliage application, Wagner pot (Table 18, symbol E)", "format": "in vivo, rice flat sedge (Cyperus iria)", "conditions": "320 g/ha", "how_it_was_run": "as §1"}, "southern crabgrass [2]": {"test_system": "southern crabgrass", "experiment": "Test Example 4: herbicidal effect by soil treatment (Table 19, symbol F)", "format": "in vivo, southern crabgrass (Digitaria ciliaris)", "conditions": "AAH 320 g/ha", "how_it_was_run": "(§2)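 In this soil treatment, the formulated compound reached the seeds only through the soil: seeds were buried about 1.5 cm deep in sterilized diluvial soil, then the diluted emulsion was sprayed over the surface. After three weeks at 25° C. to 30° C. in a greenhouse, effects were graded on criteria from an earlier test.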"}, "green foxtail [3]": {"test_system": "green foxtail", "experiment": "Test Example 4: herbicidal effect by soil treatment (Table 19, symbol G)", "format": "in vivo, green foxtail (Setaria viridis)", "conditions": "AAH 320 g/ha", "how_it_was_run": "as §2"}, "barnyard grass [4]": {"test_system": "barnyard grass", "experiment": "Test Example 4: herbicidal effect by soil treatment (Table 19, symbol H)", "format": "in vivo, barnyard grass (Echinochloa crus-galli)", "conditions": "AAH 320 g/ha", "text": "(§3) [Test Example 4] Herbicidal Effect Test by Soil Treatment\n(§4) Sterilized diluvial soil was placed in a plastic box having a length of 21 cm, a width of 13 cm, and a depth of 7 cm. The seeds of each of southern crabgrass, green foxtail, barnyard grass, wild oat, blackgrass, Italian ryegrass, windgrass, velvetleaf, redroot pigweed, lambsquarters, chickweed, false cleavers, persian speedwell, corn, soybean, rice, wheat, beet, and rapeseed were sowed in a spot-like manner and covered with the soil having a thickness of about 1.5 cm. Subsequently, the emulsion agent of the compound of the present invention prepared according to Formulation Example 2 was diluted with water so as to achieve a predetermined herbicide amount, and the diluted emulsion agent was uniformly applied to the surface of the soil with a small-sized spray. The plastic box was placed in a greenhouse at 25° C. to 30° C. for growth of the plants. Three weeks after the herbicide application, the effect of the herbicide on each plant was evaluated according to the criteria of Test Example 1."}, "wild oat [5]": {"test_system": "wild oat", "experiment": "Test Example 4: herbicidal effect by soil treatment (Table 19, symbol I)", "format": "in vivo, wild oat (Avena fatua)", "conditions": "AAH 320 g/ha", "text": "as §3, §4"}, "blackgrass [6]": {"test_system": "blackgrass", "experiment": "Test Example 4: herbicidal effect by soil treatment (Table 19, symbol J)", "format": "in vivo, blackgrass (Alopecurus myosuroides)", "conditions": "AAH 320 g/ha", "text": "as §3, §4"}, "Italian ryegrass [7]": {"test_system": "Italian ryegrass", "experiment": "Test Example 4: herbicidal effect by soil treatment (Table 19, symbol K)", "format": "in vivo, Italian ryegrass (Lolium multiflorum)", "conditions": "AAH 320 g/ha", "text": "as §3, §4"}, "windgrass [8]": {"test_system": "windgrass", "experiment": "Test Example 4: herbicidal effect by soil treatment (Table 19, symbol L)", "format": "in vivo, windgrass (Apera spica-venti)", "conditions": "AAH 320 g/ha", "text": "as §3, §4"}, "velvetleaf [9]": {"test_system": "velvetleaf", "experiment": "Test Example 4: herbicidal effect by soil treatment (Table 19, symbol M)", "format": "in vivo, velvetleaf (Abutilon theophrasti)", "conditions": "AAH 320 g/ha", "text": "as §3, §4"}, "redroot pigweed [10]": {"test_system": "redroot pigweed", "experiment": "Test Example 4: herbicidal effect by soil treatment (Table 19, symbol N)", "format": "in vivo, redroot pigweed (Amaranthus retroflexus)", "conditions": "AAH 320 g/ha", "text": "as §3, §4"}, "lambsquarters [11]": {"test_system": "lambsquarters", "experiment": "Test Example 4: herbicidal effect by soil treatment (Table 19, symbol O)", "format": "in vivo, lambsquarters (Chenopodium album)", "conditions": "AAH 320 g/ha", "text": "as §3, §4"}, "chickweed [12]": {"test_system": "chickweed", "experiment": "Test Example 4: herbicidal effect by soil treatment (Table 19, symbol P)", "format": "in vivo, common chickweed (Stellaria media)", "conditions": "AAH 320 g/ha", "text": "as §3, §4"}, "southern crabgrass [13]": {"test_system": "southern crabgrass", "experiment": "Test Example 5: herbicidal effect by foliage application, plastic box (Table 20, symbol F)", "format": "in vivo, southern crabgrass (Digitaria ciliaris)", "conditions": "foliage application, AAH 320 g/ha, three weeks after application", "how_it_was_run": "(§5)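 Plants were sown into sterilized diluvial soil under about 1.5 cm cover and kept in a greenhouse at 25° C. to 30° C. Fourteen days on, foliage received an even spray of the diluted emulsion. Herbicidal or crop effect was judged three weeks afterwards.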"}, "green foxtail [14]": {"test_system": "green foxtail", "experiment": "Test Example 5: herbicidal effect by foliage application, plastic box (Table 20, symbol G)", "format": "in vivo, green foxtail (Setaria viridis)", "conditions": "foliage application, AAH 320 g/ha, three weeks after application", "how_it_was_run": "as §5"}, "barnyard grass [15]": {"test_system": "barnyard grass", "experiment": "Test Example 5: herbicidal effect by foliage application, plastic box (Table 20, symbol H)", "format": "in vivo, barnyard grass (Echinochloa crus-galli)", "conditions": "foliage application, AAH 320 g/ha, three weeks after application", "how_it_was_run": "as §5"}, "wild oat [16]": {"test_system": "wild oat", "experiment": "Test Example 5: herbicidal effect by foliage application, plastic box (Table 20, symbol I)", "format": "in vivo, wild oat (Avena fatua)", "conditions": "foliage application, AAH 320 g/ha, three weeks after application", "how_it_was_run": "as §5"}, "blackgrass [17]": {"test_system": "blackgrass", "experiment": "Test Example 5: herbicidal effect by foliage application, plastic box (Table 20, symbol J)", "format": "in vivo, blackgrass (Alopecurus myosuroides)", "conditions": "foliage application, AAH 320 g/ha, three weeks after application", "how_it_was_run": "as §5"}, "Italian ryegrass [18]": {"test_system": "Italian ryegrass", "experiment": "Test Example 5: herbicidal effect by foliage application, plastic box (Table 20, symbol K)", "format": "in vivo, Italian ryegrass (Lolium multiflorum)", "conditions": "foliage application, AAH 320 g/ha, three weeks after application", "how_it_was_run": "as §5"}, "windgrass [19]": {"test_system": "windgrass", "experiment": "Test Example 5: herbicidal effect by foliage application, plastic box (Table 20, symbol L)", "format": "in vivo, windgrass (Apera spica-venti)", "conditions": "foliage application, AAH 320 g/ha, three weeks after application", "how_it_was_run": "as §5"}, "velvetleaf [20]": {"test_system": "velvetleaf", "experiment": "Test Example 5: herbicidal effect by foliage application, plastic box (Table 20, symbol M)", "format": "in vivo, velvetleaf (Abutilon theophrasti)", "conditions": "foliage application, AAH 320 g/ha, three weeks after application", "how_it_was_run": "as §5"}, "redroot pigweed [21]": {"test_system": "redroot pigweed", "experiment": "Test Example 5: herbicidal effect by foliage application, plastic box (Table 20, symbol N)", "format": "in vivo, redroot pigweed (Amaranthus retroflexus)", "conditions": "foliage application, AAH 320 g/ha, three weeks after application", "how_it_was_run": "as §5"}, "lambsquarters [22]": {"test_system": "lambsquarters", "experiment": "Test Example 5: herbicidal effect by foliage application, plastic box (Table 20, symbol O)", "format": "in vivo, lambsquarters (Chenopodium album)", "conditions": "foliage application, AAH 320 g/ha, three weeks after application", "how_it_was_run": "as §5"}, "chickweed [23]": {"test_system": "chickweed", "experiment": "Test Example 5: herbicidal effect by foliage application, plastic box (Table 20, symbol P)", "format": "in vivo, common chickweed (Stellaria media)", "conditions": "foliage application, AAH 320 g/ha, three weeks after application", "how_it_was_run": "as §5"}, "persian speedwell": {"test_system": "persian speedwell", "experiment": "Test Example 5: herbicidal effect by foliage application, plastic box (Table 20, symbol R)", "format": "in vivo, Persian speedwell (Veronica persica)", "conditions": "foliage application, AAH 320 g/ha, three weeks after application", "how_it_was_run": "as §5"}}, "data": [{"smiles": "Cc1nn(C)c(=O)c(-c2c(-c3ccc([Si](C)(C)C)cc3)sc3ccccc23)c1O", "note": "[1-153]", "values": [{"measurement": "herbicidal effect on H (barnyard grass), rating 0-5", "setting": "barnyard grass [1]", "result": "4 (Herbicidal rate of 70% or more and less than 90%)"}, {"measurement": "herbicidal effect on D (Chinese sprangletop), rating 0-5", "setting": "Chinese sprangletop", "result": "2 (Herbicidal rate of 20% or more and less than 40%)"}, {"measurement": "herbicidal effect on E (rice flat sedge), rating 0-5", "setting": "rice flat sedge", "result": "3 (Herbicidal rate of 40% or more and less than 70%)"}, {"measurement": "F: southern crabgrass, herbicidal effect rating", "setting": "southern crabgrass [2]", "result": "2 (Herbicidal rate of 20% or more and less than 40%)"}, {"measurement": "G: green foxtail, herbicidal effect rating", "setting": "green foxtail [3]", "result": "3 (Herbicidal rate of 40% or more and less than 70%)"}, {"measurement": "H: barnyard grass, herbicidal effect rating", "setting": "barnyard grass [4]", "result": "0 (Herbicidal rate of 5% or less (almost no effect))"}, {"measurement": "I: wild oat, herbicidal effect rating", "setting": "wild oat [5]", "result": "0 (Herbicidal rate of 5% or less (almost no effect))"}, {"measurement": "J: blackgrass, herbicidal effect rating", "setting": "blackgrass [6]", "result": "0 (Herbicidal rate of 5% or less (almost no effect))"}, {"measurement": "K: Italian ryegrass, herbicidal effect rating", "setting": "Italian ryegrass [7]", "result": "0 (Herbicidal rate of 5% or less (almost no effect))"}, {"measurement": "L: windgrass, herbicidal effect rating", "setting": "windgrass [8]", "result": "0 (Herbicidal rate of 5% or less (almost no effect))"}, {"measurement": "M: velvetleaf, herbicidal effect rating", "setting": "velvetleaf [9]", "result": "0 (Herbicidal rate of 5% or less (almost no effect))"}, {"measurement": "N: redroot pigweed, herbicidal effect rating", "setting": "redroot pigweed [10]", "result": "3 (Herbicidal rate of 40% or more and less than 70%)"}, {"measurement": "O: lambsquarters, herbicidal effect rating", "setting": "lambsquarters [11]", "result": "5 (Herbicidal rate of 90% or more (almost completely withered))"}, {"measurement": "P: chickweed, herbicidal effect rating", "setting": "chickweed [12]", "result": "0 (Herbicidal rate of 5% or less (almost no effect))"}, {"measurement": "F: southern crabgrass, herbicidal effect", "setting": "southern crabgrass [13]", "result": "0 (Herbicidal rate of 5% or less (almost no effect))"}, {"measurement": "G: green foxtail, herbicidal effect", "setting": "green foxtail [14]", "result": "3 (Herbicidal rate of 40% or more and less than 70%)"}, {"measurement": "H: barnyard grass, herbicidal effect", "setting": "barnyard grass [15]", "result": "0 (Herbicidal rate of 5% or less (almost no effect))"}, {"measurement": "I: wild oat, herbicidal effect", "setting": "wild oat [16]", "result": "0 (Herbicidal rate of 5% or less (almost no effect))"}, {"measurement": "J: blackgrass, herbicidal effect", "setting": "blackgrass [17]", "result": "0 (Herbicidal rate of 5% or less (almost no effect))"}, {"measurement": "K: Italian ryegrass, herbicidal effect", "setting": "Italian ryegrass [18]", "result": "0 (Herbicidal rate of 5% or less (almost no effect))"}, {"measurement": "L: windgrass, herbicidal effect", "setting": "windgrass [19]", "result": "0 (Herbicidal rate of 5% or less (almost no effect))"}, {"measurement": "M: velvetleaf, herbicidal effect", "setting": "velvetleaf [20]", "result": "2 (Herbicidal rate of 20% or more and less than 40%)"}, {"measurement": "N: redroot pigweed, herbicidal effect", "setting": "redroot pigweed [21]", "result": "5 (Herbicidal rate of 90% or more (almost completely withered))"}, {"measurement": "O: lambsquarters, herbicidal effect", "setting": "lambsquarters [22]", "result": "4 (Herbicidal rate of 70% or more and less than 90%)"}, {"measurement": "P: chickweed, herbicidal effect", "setting": "chickweed [23]", "result": "0 (Herbicidal rate of 5% or less (almost no effect))"}, {"measurement": "R: persian speedwell, herbicidal effect", "setting": "persian speedwell", "result": "5 (Herbicidal rate of 90% or more (almost completely withered))"}]}]}
